This passage reports IC50 results from patent US20260098053A1, “COMPOSITIONS AND METHODS FOR TREATING CNS DISORDERS” (SAGE THERAPEUTICS, INC., priority 2019, published 2026).

The first assay concerns the target [35S]-TBPS binding, rat brain cortical membranes. The experiment in a line: Steroid inhibition of [35S]-TBPS binding. The note with it: Table 4, 3 nM [35S]-TBPS, in the presence of 5 mM GABA, read-out: TBPS IC50. Here is the method: [35S]-t-Butylbicyclophosphorothionate (TBPS) binding assays using rat brain cortical membranes in the presence of 5 mM GABA has been described (Gee et al, J. Pharmacol. Exp. Ther. 1987, 241, 346-353; Hawkinson et al, Mol. Pharmacol. 1994, 46, 977-985; Lewin, A. H et al., Mol. Pharmacol. 1989, 35, 189-194).
Briefly, cortices are rapidly removed following decapitation of carbon dioxide-anesthetized Sprague-Dawley rats (200-250 g). The cortices are homogenized in 10 volumes of ice-cold 0.32 M sucrose using a glass/teflon homogenizer and centrifuged at 1500×g for 10 min at 4° C. The resultant supernatants are centrifuged at 10,000×g for 20 min at 4° C. to obtain the P2 pellets. The P2 pellets are resuspended in 200 mM NaCl/50 mM Na—K phosphate pH 7.4 buffer and centrifuged at 10,000×g for 10 min at 4° C. This washing procedure is repeated twice and the pellets are resuspended in 10 volumes of buffer. Aliquots ([…]) of the membrane suspensions are incubated with 3 nM [^35S]-TBPS and […] aliquots of test drug dissolved in dimethyl sulfoxide (DMSO) (final 0.5%) in the presence of 5 mM GABA. The incubation is brought to a final volume of 1.0 mL with buffer. Nonspecific binding is determined in the presence of […] and ranged from 15 to 25%. Following a 90 min incubation at room temp, the assays are terminated by filtration through glass fiber filters (Schleicher and Schuell No. 32) using a cell harvester (Brandel) and rinsed three times with ice-cold buffer. Filter bound radioactivity is measured by liquid scintillation spectrometry. Non-linear curve fitting of the overall data for each drug averaged for each concentration is done using Prism (GraphPad). […] The concentration of test compound producing 50% inhibition (IC50) of specific binding and the maximal extent of inhibition (Imax) are determined for the individual experiments with the same model used for the overall data and then the means±SEM.s of the individual experiments are calculated.
Various compounds are or can be screened to determine their potential as modulators of [^35S]-TBPS binding in vitro. These assays are or can be performed in accordance with the above
As for `CC[C@@]1(O)CCC[C@H]2[C@H](CC[C@@H]3[C@@H]2CC[C@]2(C)[C@H](C(C)=O)CCC[C@@H]32)C1` [Example 36, 1-((1R,4aS,4bR,6aR,8R,11aS,11bR,13aS)-8-ethyl-8-hydroxy-13a-methyloctadecahydro-1H-cyclohepta[a]phenanthren-1-yl)ethenone], the IC50 (commonly the point on the concentration scale where inhibition reaches its midpoint) is more than 1 µM.

On to `CC(=O)[C@H]1CCCC[C@H]2[C@@H]3CC[C@@H]4C[C@](C)(O)CCC[C@]4(C)[C@H]3CC[C@]12C` [Example 59, 1-((1S,5aS,5bR,7aR,9R,12aS,12bS,14aS)-9-hydroxy-9,12a,14a-trimethylicosahydrodicyclohepta[a,f]naphthalen-1-yl)ethanone], for which the IC50 lay in the range of 0.1 to 1 µM. Turning to `CC(=O)[C@H]1CCC[C@H]2[C@@H]3CC[C@@H]4C[C@](C)(O)CCC[C@]4(C)[C@H]3CC[C@]12C` [Example 15, 1-((1S,4aS,4bR,6aR,8R,11aS,11bS,13aS)-8-hydroxy-8,11a,13a-trimethyloctadecahydro-1H-cyclohepta[a]phenanthren-1-yl)ethan-1-one], the concentration for half-maximal inhibition (IC50) is less than 0.1 µM. As to `C[C@@]1(O)CCC[C@@]2(C)[C@H](CC[C@@H]3[C@@H]2CC[C@]2(C)[C@@H](C(=O)Cn4cc(C#N)cn4)CCCC[C@@H]32)C1` [Example 60], the half-inhibitory concentration (IC50) is less than 0.1 µM. Same read-out and setting: next, `COC[C@@]1(O)CCC[C@@]2(C)[C@@H](CC[C@@H]3[C@@H]2CC[C@]2(C)[C@@H](C(=O)Cn4cc(C#N)cn4)CCC[C@@H]32)C1` [Example 43]: less than 0.1 µM; `CC(=O)[C@H]1CCC[C@H]2[C@@H]3CC=C4CC[C@](C)(O)CC[C@]4(C)[C@H]3CC[C@]12C` [Example 57, 1-((1S,4aS,4bS,9S,11aR,11bS,13aS)-9-hydroxy-9,11a,13a-trimethyl-2,3,4,4a,4b,5,7,8,9,10,11,11a,11b,12,13,13a-hexadecahydro-1H-cyclohepta[a]phenanthren-1-yl)ethanone]: less than 0.1 µM; `C[C@]1(O)CCC2=CC[C@H]3[C@@H]4CCC[C@H](C(=O)Cn5cc(C#N)cn5)[C@@]4(C)CC[C@@H]3[C@@]2(C)CC1` [Example 58, 1-(2-((1S,4aS,4bS,9S,11aR,11bS,13aS)-9-hydroxy-9,11a,13a-trimethyl-2,3,4,4a,4b,5,7,8,9,10,11,11a,11b,12,13,13a-hexadecahydro-1H-cyclohepta[a]phenanthren-1-yl)-2-oxoethyl)-1H-pyrazole-4-carbonitrile]: less than 0.1 µM. On the same count and under the same terms, next, `CC[C@]1(O)CC[C@H]2CC[C@@H]3[C@H](CC[C@]4(C)[C@@H](C(C)=O)CCC[C@@H]34)[C@H]2CC1` [Example 49, 1-((1S,4aS,4bR,6aR,9S,11aS,11bR,13aS)-9-ethyl-9-hydroxy-13a-methyloctadecahydro-1H-cyclohepta[a]phenanthren-1-yl)ethanone]: more than 1 µM; `CC[C@]12CC[C@@](C)(O)C[C@H]1CC[C@H]1[C@@H]3CCCC[C@@H](C(C)=O)[C@@]3(C)CC[C@@H]12` [Example 23, 1-((2R,4aS,4bS,6aS,7R,11aS,11bS,13aR)-4a-ethyl-2-hydroxy-2,6a-dimethyloctadecahydro-1H-cyclohepta[a]phenanthren-7-yl)ethanone]: 0.1 to 1 µM. In the case of `CC[C@@]1(O)CCC[C@@]2(C)[C@H](CC[C@@H]3[C@@H]2CC[C@]2(C)[C@@H](C(=O)Cn4cc(C#N)cn4)CCC[C@@H]32)C1` [Example 38, 1-(2-((1S,4aS,4bR,6aR,8R,11aS,11bS,13aS)-8-ethyl-8-hydroxy-11a,13a-dimethyloctadecahydro-1H-cyclohepta[a]phenanthren-1-yl)-2-oxoethyl)-1H-pyrazole-4-carbonitrile], the IC50 was in the range of 0.1 to 1 µM.

Still in this assay, the particulars now being: Table 5, 3 nM [35S]-TBPS, in the presence of 5 mM GABA, read-out: TBPS IC50.
As for `C[C@@]1(O)CC[C@H]2[C@H](CC[C@H]3[C@@H]4CC[C@H](C(=O)Cn5cc(C#N)cn5)[C@@H]4CC[C@@H]32)C1` [Example 84, 1-(2-((3R,5R,8R,9R,10S,13R,14S,17S)-3-hydroxy-3-methylhexadecahydro-1H-cyclopenta[a]phenanthren-17-yl)-2-oxoethyl)-1H-pyrazole-4-carbonitrile], the IC50 was 0.1 to 1 µM. As to `Cc1nnnn1CC(=O)[C@H]1CCC[C@H]2[C@@H]3CC[C@H]4C[C@](C)(O)CC[C@@H]4[C@H]3CC[C@@H]21` [Example 81, 1-((1S,4aS,4bR,6aS,8R,10aS,10bR,12aS)-8-hydroxy-8-methyloctadecahydrochrysen-1-yl)-2-(5-methyl-1H-tetrazol-1-yl)ethanone], the half-inhibitory concentration (IC50) was less than 0.1 µM. The same measure, in the same setting: as for `CC[C@]12CC[C@@](C)(O)C[C@H]1CC[C@H]1[C@@H]3CC[C@H](C(=O)Cn4nnnc4C)[C@H]3CC[C@@H]12` [Example 82, 1-((3R,5R,8S,9S,10S,13S,14S,17S)-10-ethyl-3-hydroxy-3-methylhexadecahydro-1H-cyclopenta[a]phenanthren-17-yl)-2-(5-methyl-1H-tetrazol-1-yl)ethanone], the figure is less than 0.1 µM; as for `C[C@@]1(O)CC[C@H]2[C@H](CC[C@@H]3[C@@H]2CC[C@H]2[C@H]3CC[C@@H]2C(=O)Cn2cc(C#N)cn2)C1` [Example 68, 1-(2-((3R,5R,8R,9R,10S,13S,14S,17S)-3-hydroxy-3-methylhexadecahydro-1H-cyclopenta[a]phenanthren-17-yl)-2-oxoethyl)-1H-pyrazole-4-carbonitrile], less than 0.1 µM; as for `CC[C@]12CC[C@@](C)(O)C[C@H]1CC[C@H]1[C@@H]3CC[C@H](C(=O)Cn4nnc(C)n4)[C@H]3CC[C@@H]12` [Example 83, 1-((3R,5R,8S,9S,10S,13S,14S,17S)-10-ethyl-3-hydroxy-3-methylhexadecahydro-1H-cyclopenta[a]phenanthren-17-yl)-2-(5-methyl-2H-tetrazol-2-yl)ethanone], less than 0.1 µM.

For `CC(=O)[C@H]1CC[C@H]2[C@@H]3CC[C@@H]4C[C@](C)(O)CC[C@@H]4[C@H]3CC[C@@H]21` [Example 66], the IC50 is less than 0.1 µM. As for `Cc1nnnn1CC(=O)[C@H]1CC[C@H]2[C@@H]3CC[C@H]4C[C@](C)(O)CC[C@@H]4[C@H]3CC[C@@H]21` [Example 76, 1-((3R,5S,8R,9R,10S,13S,14S,17S)-3-hydroxy-3-methylhexadecahydro-1H-cyclopenta[a]phenanthren-17-yl)-2-(5-methyl-1H-tetrazol-1-yl)ethanone], the concentration for half-maximal inhibition (IC50) was more than 1 µM.

Staying with this assay, now noted: Table 6, 3 nM [35S]-TBPS, in the presence of 5 mM GABA, read-out: IC50.
As to `CC[C@]12CC[C@H]3[C@@H](CC[C@@H]4C[C@](C)(O)CC[C@@]43C3CC3)[C@@H]1CC[C@@H]2C(=O)Cn1ccc(C#N)n1` [Example 90, 1-(2-((3R,5R,8S,9S,10R,13S,14S,17S)-10-cyclopropyl-13-ethyl-3-hydroxy-3-methylhexadecahydro-1H-cyclopenta[a]phenanthren-17-yl)-2-oxoethyl)-1H-pyrazole-3-carbonitrile], the IC50 is less than 0.1 µM.

With `CC[C@]12CC[C@H]3[C@@H](CC[C@@H]4C[C@](C)(O)CC[C@@]43C3CC3)[C@@H]1CC[C@@H]2C(C)=O` [Example 88, 1-((3R,5R,8S,9S,10R,13S,14S,17S)-10-cyclopropyl-13-ethyl-3-hydroxy-3-methylhexadecahydro-1H-cyclopenta[a]phenanthren-17-yl)ethanone], the half-inhibitory concentration (IC50) was less than 0.1 µM. `CC[C@]12CC[C@H]3[C@@H](CC[C@@H]4C[C@](C)(O)CC[C@@]43C3CC3)[C@@H]1CC[C@@H]2C(=O)Cn1nnnc1C` [Example 92, 1-((3R,5R,8S,9S,10R,13S,14S,17S)-10-cyclopropyl-13-ethyl-3-hydroxy-3-methylhexadecahydro-1H-cyclopenta[a]phenanthren-17-yl)-2-(5-methyl-1H-tetrazol-1-yl)ethanone]: the 50% inhibitory concentration (IC50) was less than 0.1 µM. Turning to `CC(=O)[C@H]1CCC[C@H]2[C@@H]3CC[C@@H]4C[C@](C)(O)CC[C@]4(C4CC4)[C@H]3CC[C@]12C` [Example 85, 1-((1S,4aS,4bS,6aR,8R,10aR,10bS,12aS)-10a-cyclopropyl-8-hydroxy-8,12a-dimethyloctadecahydrochrysen-1-yl)ethan-1-one], the IC50 was less than 0.1 µM.
